Assay results taken from publication PMC3488320, “Indirubin derivative E804 inhibits angiogenesis” (BMC Cancer, 2012).

Biological target: T1, VEGFR-2 (Homo sapiens, UniProt P35968)
T1 construct: gene KDR
Test: HTScan VEGFR-2 kinase assay kit (purified kinase, peptide substrate, pTyr-100 ELISA)
Type: biochemical

T1 sequence (P35968 20-1356): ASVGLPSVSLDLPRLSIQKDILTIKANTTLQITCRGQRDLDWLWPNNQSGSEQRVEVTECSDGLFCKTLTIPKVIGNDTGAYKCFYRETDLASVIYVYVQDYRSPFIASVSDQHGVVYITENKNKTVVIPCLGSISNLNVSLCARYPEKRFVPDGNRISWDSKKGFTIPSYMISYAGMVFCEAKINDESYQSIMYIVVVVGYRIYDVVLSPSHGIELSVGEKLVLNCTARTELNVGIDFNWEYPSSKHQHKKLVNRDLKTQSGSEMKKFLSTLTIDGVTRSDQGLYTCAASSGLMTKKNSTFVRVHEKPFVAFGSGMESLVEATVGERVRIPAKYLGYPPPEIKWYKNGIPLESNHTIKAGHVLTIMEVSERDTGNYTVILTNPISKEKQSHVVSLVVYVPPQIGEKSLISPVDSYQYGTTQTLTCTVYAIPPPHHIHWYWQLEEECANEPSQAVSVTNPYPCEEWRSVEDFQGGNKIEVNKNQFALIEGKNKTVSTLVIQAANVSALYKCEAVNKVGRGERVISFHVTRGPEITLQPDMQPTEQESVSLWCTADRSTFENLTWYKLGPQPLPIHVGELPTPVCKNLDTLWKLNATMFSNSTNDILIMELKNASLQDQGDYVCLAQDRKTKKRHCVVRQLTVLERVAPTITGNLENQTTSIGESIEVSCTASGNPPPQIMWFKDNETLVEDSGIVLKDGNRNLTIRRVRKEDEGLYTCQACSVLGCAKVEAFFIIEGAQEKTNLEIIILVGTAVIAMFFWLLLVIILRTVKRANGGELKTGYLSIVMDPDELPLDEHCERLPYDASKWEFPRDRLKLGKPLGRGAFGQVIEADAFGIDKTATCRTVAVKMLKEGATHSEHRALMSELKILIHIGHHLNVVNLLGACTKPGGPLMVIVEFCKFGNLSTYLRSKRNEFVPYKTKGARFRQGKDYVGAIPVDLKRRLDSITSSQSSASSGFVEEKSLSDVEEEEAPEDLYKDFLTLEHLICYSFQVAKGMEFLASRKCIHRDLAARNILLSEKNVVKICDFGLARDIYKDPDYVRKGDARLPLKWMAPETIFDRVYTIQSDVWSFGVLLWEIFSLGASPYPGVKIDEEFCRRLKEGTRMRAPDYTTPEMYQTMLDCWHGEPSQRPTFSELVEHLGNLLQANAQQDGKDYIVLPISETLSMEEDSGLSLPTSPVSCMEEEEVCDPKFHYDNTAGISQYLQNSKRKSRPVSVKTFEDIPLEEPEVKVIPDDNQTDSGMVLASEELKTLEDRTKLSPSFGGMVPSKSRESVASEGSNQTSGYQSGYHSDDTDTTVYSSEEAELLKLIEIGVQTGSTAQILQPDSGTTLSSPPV

Question: Which IC50 does the source give for O=C1Nc2ccccc2C1=C1Nc2ccccc2C1=NOCC(O)CO (stereo not shown) [IDR-E804] here?
Answer: 950 nM
